Source: PubChem BioAssay AID294 (DTP/NCI, 2004)
“And” between values parts separate entries of the source, which are not always exact repeats. Equal values may be shown once.

Tested on: MX-1 breast xenograft, nude mice, tumor weight change
Test: NCI In Vivo Anticancer Drug Screen. Data for tumor model Human Mammary Carcinoma MX-1 Xenograft (subcutaneous) in NU/NU Swiss (nude) mice
Settings: endpoint: optimum tumor weight change, higher = larger tumour
Protocol: The antitumor activity of compounds was measured in mice bearing transplantable tumors. Survival or tumor size were measured and the results are expressed as the measurement made in the treated group (T) divided by the measurement made in the vehicle treated control group (C). The tumor model used in this assay is Human Mammary Carcinoma MX-1 Xenograft (subcutaneous) in NU/NU Swiss (nude) mice

[1] = dose: 25.0 mg/kg/injection, schedule: Q04DX003 (ip), vehicle: saline
[2] = dose: 100.0 mg/kg/injection, schedule: Q04DX003 (ip), vehicle: saline with Tween-80
[3] = dose: 200.0 mg/kg/injection, schedule: Q04DX003 (ip), vehicle: saline with Tween-80
[4] = dose: 400.0 mg/kg/injection, schedule: Q04DX003 (ip), vehicle: saline with Tween-80
[5] = dose: 800.0 mg/kg/injection, schedule: Q04DX003 (ip), vehicle: saline with Tween-80
[6] = dose: 400.0 mg/kg/injection, schedule: Q04DX003 (ip), vehicle: saline
[7] = dose: 400.0 mg/kg/injection, schedule: Q04DX003 (ip), vehicle: suspension in saline
[8] = dose: 800.0 mg/kg/injection, schedule: Q04DX003 (ip), vehicle: suspension in saline
[9] = dose: 100.0 mg/kg/injection, schedule: Q04DX003 (ip), vehicle: saline
[10] = dose: 50.0 mg/kg/injection, schedule: Q04DX003 (ip), vehicle: Klucel (hydroxypropylcellulose) (HPC)
[11] = dose: 100.0 mg/kg/injection, schedule: Q04DX003 (ip), vehicle: Klucel (hydroxypropylcellulose) (HPC)
[12] = dose: 200.0 mg/kg/injection, schedule: Q04DX003 (ip), vehicle: Klucel (hydroxypropylcellulose) (HPC)
[13] = dose: 50.0 mg/kg/injection, schedule: Q04DX003 (ip), vehicle: saline
[14] = dose: 200.0 mg/kg/injection, schedule: Q04DX003 (ip), vehicle: saline
[15] = dose: 25.0 mg/kg/injection, schedule: Q04DX003 (ip), vehicle: Klucel (hydroxypropylcellulose) (HPC)
[16] = dose: 5.0 mg/kg/injection, schedule: Q04DX003 (ip), vehicle: Klucel (hydroxypropylcellulose) (HPC)
[17] = dose: 10.0 mg/kg/injection, schedule: Q04DX003 (ip), vehicle: Klucel (hydroxypropylcellulose) (HPC)

In the case of `C1OC1CN1CCN(CC2CO2)CC1` (configuration not stated), the T/C (dose: 12.5 mg/kg/injection, schedule: Q04DX003 (ip), vehicle: saline) is reported as 91 % of control and the T/C [1] is reported as 79 % of control.
For `COC1C(O)CC(OC2CC(OC3CC(O[C@@H]4C(=O)c5c(cc6cc(OC7CC(OC8CC(O)C(O)C(C)O8)C(O)C(C)O7)c(C)c(O)c6c5O)C[C@H]4[C@H](OC)C(=O)[C@@H](O)[C@@H](C)O)OC(C)C3O)OC(C)C2O)OC1C` (some centres not stated), the T/C (dose: 0.75 mg/kg/injection, schedule: Q04DX003 (ip), vehicle: saline) was 90 % of control and 95 % of control.
For `ClCC[N+]12CC[N+](CCCl)(CC1)C2`, the T/C [2] was 60 % of control, the T/C [3] was 56 % of control and the T/C (dose: 200.0 mg/kg/injection, schedule: Q04DX003 (ip), vehicle: water) was 51 % of control. For the same molecule, the T/C [4] was 59 % of control, the T/C (dose: 400.0 mg/kg/injection, schedule: Q04DX003 (ip), vehicle: water) was 53 % of control and the T/C [5] was 31 % of control. The T/C (dose: 1600.0 mg/kg/injection, schedule: Q04DX003 (ip), vehicle: saline with Tween-80) was 28 % of control.
With `O=C[C@@H](CO)O[C@H](C=O)n1cnc2c(=O)[nH]cnc21` the T/C [6] was 29 % of control.
In the case of `CC(=O)OCC1OC(n2ccc(N)nc2=O)C(OC(C)=O)C1OC(C)=O` (configuration not stated), the T/C (dose: 100.0 mg/kg/injection, schedule: Q04DX003 (ip), vehicle: suspension in saline) is reported as 60 % of control, the T/C (dose: 200.0 mg/kg/injection, schedule: Q04DX003 (ip), vehicle: suspension in saline) is reported as 62 % of control and the T/C [7] is reported as 39 % of control. The T/C [8] was 39 % of control.
With `CC1(CO)C(O)CCC2(C)C1CCC1CC3CC12CCC3(O)CO` (configuration not stated) the T/C [2] was 50 % of control, the T/C [3] was 61 % of control and the T/C [4] was 54 % of control.
In the case of `O=NN(CCCl)C(=O)NC1CCCCC1`, the T/C (dose: 12.5 mg/kg/injection, schedule: Q04DX003 (ip), vehicle: Klucel (hydroxypropylcellulose) (HPC)) is reported as 75 % of control.
`Oc1ccc(O)cc1` was tested, and the T/C [9] was 110 % of control.
For `NC(=O)c1ccc[n+](Cc2c(Cl)cccc2Cl)c1`, the T/C (dose: 3.0 mg/kg/injection, schedule: Q04DX003 (ip), vehicle: saline) was 169 % of control, the T/C (dose: 24.0 mg/kg/injection, schedule: Q04DX003 (ip), vehicle: saline) was 111 % of control and 112 % of control and the T/C (dose: 96.0 mg/kg/injection, schedule: Q04DX003 (ip), vehicle: saline) was 100 % of control.
`C[C@]12CC[C@@H]3c4ccc(OC(=O)Cc5ccc(N(CCCl)CCCl)cc5)cc4CC[C@H]3[C@@H]1CC[C@@H]2OC(=O)Cc1ccc(N(CCCl)CCCl)cc1` was tested, and the T/C [5] was 50 % of control.
`CN(C)c1nc(N(C)C)nc(N(C)C)n1` was tested, and the T/C [10] was 59 % of control, the T/C (dose: 60.0 mg/kg/injection, schedule: Q01DX005 (ip), vehicle: Klucel (hydroxypropylcellulose) (HPC)) was 15 % of control and the T/C (dose: 60.0 mg/kg/injection, schedule: Q07DX005 (ip), vehicle: Klucel (hydroxypropylcellulose) (HPC)) was 42 % of control. For the same molecule, the T/C [11] was 47 % of control, the T/C (dose: 120.0 mg/kg/injection, schedule: Q01DX005 (ip), vehicle: Klucel (hydroxypropylcellulose) (HPC)) was 1 % of control and the T/C (dose: 120.0 mg/kg/injection, schedule: Q04DX005 (ip), vehicle: Klucel (hydroxypropylcellulose) (HPC)) was -38 % of control. For the same molecule, the T/C [12] was 1 % of control and the T/C (dose: 240.0 mg/kg/injection, schedule: Q07DX005 (ip), vehicle: Klucel (hydroxypropylcellulose) (HPC)) was -99 % of control.
In the case of `CN1CCN(CCCN2c3ccccc3Sc3ccc(C(F)(F)F)cc32)CC1`, the T/C [13] is reported as 58 % of control.
In the case of `N=C(N)Sc1ccccn1`, the T/C [13] is reported as 106 % of control, the T/C [9] is reported as 77 % of control and the T/C [14] is reported as 60 % of control.
With `Cc1cc(N(CCOS(C)(=O)=O)CCOS(C)(=O)=O)ccc1C=Nc1ccc(-c2nc(Cc3ccccc3)sc2C)cc1` the T/C [10] was 46 % of control, the T/C [11] was -84 % of control and the T/C [12] was -73 % of control.
With `N[C@H](C(=O)O)[C@@H]1CC(Cl)=NO1` the T/C [1] was 19 % of control, the T/C [13] was 12 % of control and the T/C [9] was 5 % of control. The T/C [14] was 1 % of control.
For `O=P1(NCCCl)OCCCN1CCCl` (configuration not stated), the T/C [1] was 57 % of control and the T/C [13] was 56 % of control.
With `CCCC(=O)OCc1cc(=O)n(C)c2c3c4c(cc12)c(C)cc(=O)n4CO3` the T/C [10] was 48 % of control and the T/C [11] was 70 % of control.
With `O=S(CCCl)CCCl` the T/C [15] was 75 % of control and the T/C [11] was 34 % of control.
For `Nc1nc(N)c2cc(CNc3ccc(C(=O)NC(CC(=O)O)CC(=O)O)cc3)ccc2n1`, the T/C [10] was 75 % of control and the T/C [11] was 49 % of control.
With `CSc1cc(=O)n2c3ccccc3c3ccnc1c32` the T/C (dose: 10.0 mg/kg/injection, schedule: Q04DX003 (ip), vehicle: saline with Tween-80) was 61 % of control, the T/C (dose: 20.0 mg/kg/injection, schedule: Q04DX003 (ip), vehicle: saline with Tween-80) was 50 % of control and 67 % of control and the T/C (dose: 80.0 mg/kg/injection, schedule: Q04DX003 (ip), vehicle: saline with Tween-80) was 27 % of control.
For `CN(CO)c1nc(N(C)CO)nc(N(C)CO)n1`, the T/C (dose: 25.0 mg/kg/injection, schedule: Q01DX005 (ip), vehicle: saline) was 3 % of control and 16 % of control, the T/C (dose: 25.0 mg/kg/injection, schedule: Q04DX005 (ip), vehicle: saline) was 45 % of control and 58 % of control and the T/C (dose: 50.0 mg/kg/injection, schedule: Q01DX005 (ip), vehicle: saline) was -7 % of control and 4 % of control. For the same molecule, the T/C (dose: 100.0 mg/kg/injection, schedule: Q01DX005 (ip), vehicle: saline) was -97 % of control and -91 % of control, the T/C (dose: 100.0 mg/kg/injection, schedule: Q07DX005 (ip), vehicle: saline) was 24 % of control and 28 % of control and the T/C (dose: 200.0 mg/kg/injection, schedule: Q01DX005 (ip), vehicle: saline) was -94 % of control. For the same molecule, the T/C (dose: 200.0 mg/kg/injection, schedule: Q04DX005 (ip), vehicle: saline) was -87 % of control and -82 % of control and the T/C (dose: 200.0 mg/kg/injection, schedule: Q07DX005 (ip), vehicle: saline) was -96 % of control.
For `COc1cccc2c1C(=O)c1c(O)c3c(c(O)c1C2=O)C[C@@](O)(/C(C)=N\O)C[C@@H]3OC1CC(N)C(O)C(C)O1` (some centres not stated), the T/C [1] was 66 % of control.
`CC1CCC(NC(=O)N(CCCl)N=O)CC1` (configuration not stated) was tested, and the T/C [15] was 50 % of control.
With `CNC=O` the T/C [14] was 7 % of control and 29 % of control, the T/C [6] was -1 % of control and 17 % of control and the T/C (dose: 800.0 mg/kg/injection, schedule: Q04DX003 (ip), vehicle: saline) was -12 % of control. For the same molecule, the T/C (dose: 1600.0 mg/kg/injection, schedule: Q04DX003 (ip), vehicle: saline) was -64 % of control.
In the case of `NC(Cc1ccc(N(CCCl)CCCl)cc1)C(=O)O` (configuration not stated), the T/C (dose: 2.5 mg/kg/injection, schedule: Q04DX003 (ip), vehicle: Klucel (hydroxypropylcellulose) (HPC)) is reported as 49 % of control, the T/C [16] is reported as 15 % of control and the T/C [17] is reported as -69 % of control and -81 % of control.
`CO[C@H]1C[C@](C)(O)Cc2cc3c(c(O)c21)C(=O)c1c(O)cc2c(c1C3=O)O[C@@H]1O[C@@]2(C)[C@H](O)[C@@H](N(C)C)[C@@H]1O` was tested, and the T/C (dose: 6.25 mg/kg/injection, schedule: Q04DX003 (ip), vehicle: other) was 169 % of control and the T/C (dose: 12.5 mg/kg/injection, schedule: Q04DX003 (ip), vehicle: other) was 165 % of control.
With `COc1cc(NS(C)(=O)=O)ccc1Nc1c2ccccc2nc2ccccc12` the T/C (dose: 8.0 mg/kg/injection, schedule: Q04DX003 (ip), vehicle: saline + alcohol) was 74 % of control.
`CN(C)C=O` was tested, and the T/C [7] was 44 % of control, the T/C [8] was 53 % of control and the T/C (dose: 1600.0 mg/kg/injection, schedule: Q04DX003 (ip), vehicle: suspension in saline) was 57 % of control.
In the case of `O=c1[nH]cnc2n[nH]nc12`, the T/C (dose: 400.0 mg/kg/injection, schedule: Q04DX003 (ip), vehicle: Klucel (hydroxypropylcellulose) (HPC)) is reported as 99 % of control.
`CC1OC(OC2CC(O)(C(=O)CO)Cc3c(O)c4c(c(O)c32)C(=O)c2ccccc2C4=O)CC(N)C1O` (configuration not stated) was tested, and the T/C (dose: 0.25 mg/kg/injection, schedule: Q04DX003 (ip), vehicle: water) was 104 % of control and the T/C (dose: 0.5 mg/kg/injection, schedule: Q04DX003 (ip), vehicle: water) was 104 % of control.
In the case of `N/C(=N\O)c1cn(C2OC(CO)C(O)C2O)c2ncnc(N)c12` (configuration not stated), the T/C [16] is reported as 109 % of control, the T/C [17] is reported as 80 % of control and the T/C (dose: 20.0 mg/kg/injection, schedule: Q04DX003 (ip), vehicle: Klucel (hydroxypropylcellulose) (HPC)) is reported as 82 % of control.
With `CS(=O)(=O)OCCN(CCOS(C)(=O)=O)c1ccc(C=Nc2ccc(-c3csc(COc4ccccc4)n3)cc2)cc1` the T/C [15] was 45 % of control, the T/C [10] was 64 % of control and the T/C [11] was 99 % of control.
`O=CC(S)CO` (configuration not stated) was tested, and the T/C [14] was 61 % of control.
